No end group written: not given here.
Legend:
[1] = tested on: human pulmonary artery smooth muscle cells (PASMC); experiment: ET-1 induced loss of mitochondrial membrane potential (JC-1 fluorescence); type: cell-based
Method: Human pulmonary Artery Smooth Muscle cells (PASMC) were grown to confluence on 10×22 mm glass cover slips in Clonetics smooth muscle basal media supplemented with growth hormones and fetal bovine serum. The cells on glass cover slips were then placed in 3 ml Hank's Balanced Salt Solution (HBSS) supplemented with […] of the mitochondrial dye JC-1 and incubated at 37° C. for 30 minute. The cells on the cover slips were then washed with 3 ml HBSS and mounted in a cuvette in a spectrofluorimeter with 3 ml HBSS. The emission spectra with excitation at 490 nm were taken over the range of 520 nm to 620 nm (150 sec). […] (0.1% acetone) FCCP, which leads complete depolarization of the mitochondrial membrane potential, was added at the end of each experiment. The spectra were normalized by dividing them by the fluorescence at 570 nm. The value obtained after FCCP treatment was assigned a value of 0 mV and the individual FCCP ratio was subtracted from each ratio point. The control (JC-1) fluorescence ratio was then assigned a value of +224 mV and the membrane potential [DmH(mV)] for each experimental point were calculated accordingly.
The cells were treated with 0.1% DMSO (vehicle for Compound 1), 1 nM Endothelin-1 (ET-1) or 1 nM ET-1 and 100 nM Compound 1 and scans were taken after 10, 30 and 60 minutes of the incubation. FCCP was added at the end and incubated for 60 minutes before taking scan. N=5 cover slips for all conditions.
The cells were treated with 0.1% DMSO or 1 nm Endothelin-1 (ET-1) and scans were taken after 30 minutes of incubation. The medium was then removed by washing the cells with fresh HBSS and scans were taken after 30 minutes. FCCP was added to the dish at the end and incubated for 60 minutes before taking scan. N=5 cover slips. In other set of 5 cover slips 1 nM Endothelin-1 (ET-1) and 100 nM Compound 1 were added and scans were taken after 30 minutes of incubation. The medium was then removed by washing the cells with fresh HBSS and 100 nM Compound 1 was added on top of it. Scans were taken after 30 minutes. FCCP was added at the end and incubated for 60 minutes before taking scan. N=3 cover slips.
The cells were treated with 1 nM Endothelin-1 (ET-1) and scans were taken after 30 minutes of incubation. The medium was then removed by washing the cells with fresh HBSS and HBSS supplemented with 100 nM Compound 1 was added to the cells. Scans were taken after 30 minutes. FCCP was added at the end and incubated for 60 minutes before taking scan. N=5 cover slips for all conditions.

[2] = tested on: Human lung alveolar type II cells (A549); experiment: Cytochrome c translocation into the cytosol induced by cigarette smoke extract (cytochrome c ELISA); type: cell-based; settings: 100 nM Compound A with 1%, 2.5% or 5% CSE, 24 hrs
Method: Smoke from 8 cigarettes were bubbled slowly through 100 ml of serum free culture medium and the resulting suspension was filtered through 0.20 μm filter. The solution was considered as 100% cigarette smoke extract (CSE). Human lung alveolar type II cells (A549) were seeded 1.5×10^5 cells per well in a 96 well plate and incubated for 48 hrs. The cells were then treated separately with either 100 nM Compound A (13,14-dihydro-15-keto-16,16-difluoro-18(S)-methyl-PGE1) or 1%, 2.5% and 5% CSE. In other sets, 100 nM Compound A was added along with 1%, 2.5% or 5% CSE. All incubations were done at 37° C. for 24 hrs. After 24 hr treatment, the cells were washed with 0-4° C. PBS three times. Measurement of cytochrome c that was translocated into the cytosol, a marker of cellular injury, was performed with a cytochrome c ELISA assay kit according to the instructions provided with the kit.

Compound: CCCCC(F)(F)C(=O)CCC1CCC(=O)C1CCCCCCC(=O)O (stereo not shown) [Compound 1, 11-deoxy-13,14-dihydro-15-keto-16,16-difluoro-PGE1]
- protection against ET-1 induced loss of membrane potential (in words) ([1]; 100 nM Compound 1 with 1 nM ET-1, 10, 30 and 60 min): protects against ET-1 induced loss of membrane potential at all times tested
- mitochondrial membrane potential ([1]; Example 1-2, 1 nM ET-1 along with 100 nM Compound 1, 30 min): 137.1±4.7 mV
- mitochondrial membrane potential ([1]; Example 1-2, after removal of ET-1 with continued 100 nM Compound 1, further 30 min): 115.3±2.3 mV
- mitochondrial membrane potential (rescue) ([1]; Example 1-3, ET-1 30 min, then ET-1 removed and 100 nM Compound 1 added, 30 min): 77.2±2.7 mV
- mitochondrial membrane potential ([1]; PASMC, 1 nM ET-1 and 100 nM Compound 1, 10 min, control taken as 224 mV): 114.2±2.6 mV
- mitochondrial membrane potential ([1]; PASMC, 1 nM ET-1 and 100 nM Compound 1, 30 min, control taken as 224 mV): 104.02±5.0 mV
- mitochondrial membrane potential ([1]; PASMC, 1 nM ET-1 and 100 nM Compound 1, 60 min, control taken as 224 mV): 73.1±2.4 mV

Compound: CC[C@H](C)CC(F)(F)C(=O)CC[C@H]1[C@H](O)CC(=O)[C@@H]1CCCCCCC(=O)O [Compound A, 13,14-dihydro-15-keto-16,16-difluoro-18(S)-methyl-PGE1]
- cytochrome c translocation by CSE (in words) [2]: protected against cytochrome c translocation by CSE

Compound: Endothelin-1 (CSCSSLMDKECVYFCHLDIIW; ends and bridges not checked; cysteine pairing not given here; UniProt P05305 53-73, looked up) [ET-1, reference compound]
- mitochondrial membrane potential ([1]; Example 1-2, ET-1 30 min, then ET-1 removed, scan after 30 min): 49.3±2.2 mV
- mitochondrial membrane potential ([1]; Examples 1-2 and 1-3, ET-1 alone, 30 min): 50.3±5.6 mV
- mitochondrial membrane potential ([1]; PASMC, 1 nM ET-1 alone, 10 min, control taken as 224 mV): 54.5±4.3 mV
- mitochondrial membrane potential ([1]; PASMC, 1 nM ET-1 alone, 30 min (Example 1-1), control taken as 224 mV): 28.0±2.8 mV
- mitochondrial membrane potential ([1]; PASMC, 1 nM ET-1 alone, 60 min, control taken as 224 mV): 13.1±1.0 mV

Reference: patent publication US20080207759A1, “METHOD FOR PROTECTING MITOCHONDRIA” (SUCAMPO AG, priority 2007, published 2008)
